From paper PMC5883364 (Malaria Journal, 2018)
Where “and” joins values, the source holds several entries; their conditions need not be identical. Equal values may be shown once. Entries after “also recorded” stand apart in the source; their conditions may differ. Read-outs that look alike come from different tables or passages of the source.

Tests used:
[1] = tested on: P. falciparum IPC5202 (artemisinin-resistant, K13 R539T); assay: SYBR Green I assay, IC50, strain IPC5202; type: cell-based, Plasmodium falciparum; conditions: for IC50: Plasmodium falciparum, read-out: P. falciparum IC50 ± SD, IPC5202, strain IPC5202; for Resistance Index RIb = IC50 (IPC5202)/IC50 (3D7): IPC5202 vs 3D7
Method: (§1) Staging and parasitaemia were determined by light microscopy of Giemsa-stained thin blood smears. Anti-malarial activity was determined using the SYBR Green I assay, as previously described.

[2] = tested on: P. falciparum IPC5202 ring-stage parasites; assay: Ring-stage survival assay (RSA), IPC5202; type: cell-based, Plasmodium falciparum
Method: (§2) Ring-stage survival assays (RSA) were carried out as described in [21], with modifications. Parasite cultures were synchronized once, with 5% sorbitol, and in the next reinvasion cycle, twice, with a 6 h interval. […] Then, plates were centrifuged and supernatant replaced by drug-free culture media. After additional incubation during 66 h for ring-stage, and 42 h for mature-stage, susceptibility was assessed microscopically on Giemsa-stained thin blood smears by estimating the percentage of viable parasites that developed into a second generation of rings or trophozoites.

[3] = tested on: HepG2-A16 (human hepatoma) cells; conditions: for LD50 HepG2: human, 48 h; for Selectivity index LD50 (HepG2)/IC50 (3D7): HepG2 vs 3D7; for Selectivity index LD50 (HepG2)/IC50 (Dd2): HepG2 vs Dd2; for Selectivity index LD50 (HepG2)/IC50 (IPC4912): HepG2 vs IPC4912; for Selectivity index LD50 (HepG2)/IC50 (IPC5202): HepG2 vs IPC5202
Method: (§3) Cytotoxicity was assessed on the mammalian cell lines HepG2-A16 (human hepatoma) and V79 (Chinese hamster lung), using a MTT based assay, as previously described. […] V79 and HepG2 cell lines were incubated for 24 and 48 h, respectively (media changed at 24 h intervals). Absorbance was read at 570 nm on a multi-mode microplate reader (Triad, Dynex Technologies), to produce a log dose-dependence curve. The LD50 value for each compound was estimated by non-linear interpolation of the dose-dependence curve (GraphPad Software).

[4] = tested on: V79 (Chinese hamster lung) cells; conditions: for LD50 V79: Chinese hamster, 24 h; for Selectivity index LD50 (V79)/IC50 (3D7): V79 vs 3D7; for Selectivity index LD50 (V79)/IC50 (Dd2): V79 vs Dd2; for Selectivity index LD50 (V79)/IC50 (IPC4912): V79 vs IPC4912; for Selectivity index LD50 (V79)/IC50 (IPC5202): V79 vs IPC5202
Method: as §3

[5] = tested on: P. falciparum 3D7 mature-stage parasites; conditions: typical value, strain not stated; cited from earlier work
[6] = tested on: P. falciparum IPC4912 (artemisinin-resistant, K13 I543T); assay: SYBR Green I assay, IC50, strain IPC4912; type: cell-based, Plasmodium falciparum; conditions: for IC50: Plasmodium falciparum, read-out: P. falciparum IC50 ± SD, IPC4912; for Resistance Index RIc = IC50 (IPC4912)/IC50 (3D7): IPC4912 vs 3D7
Method: Staging and parasitaemia were determined by light microscopy of Giemsa-stained thin blood smears. Anti-malarial activity was determined using the SYBR Green I assay, as previously described. Briefly, early ring stage parasites (> 80% of rings) were challenged with a 1:3 serial dilution of each compound, in concentrations ranging from 10,000–0.169 nM. Fluorescence intensity was measured with a multi-mode microplate reader (Triad, Dynex Technologies), with excitation and emission wavelengths of 485 and 535 nm, respectively, and analysed by nonlinear regression using GraphPad Prism to determine IC50 values.

Swiss albino mice = assay: Acute toxicity observation in treated mice; type: in vivo; conditions: 50 mg/kg/day oral, monitored daily
Method: (§4) In vivo tests were performed following the Guidelines for Ethical Conduct in The Care and Use of Animals of the Federal University of Rio Grande do Norte—Brazil (CEUA/UFRN/46/2013). Evaluation of anti-malarial activity in vivo was carried out using the Peters’ 4-day suppressive test, with modifications, as previously described. Swiss albino mice were infected with Plasmodium berghei NK65 and randomly allocated to groups of five animals. Animals were treated with 50 mg/kg/day of each of the tested compounds (dissolved in PBS containing 1% DMSO), administrated orally, for four consecutive days. The control group was treated with a solution of PBS/1% DMSO. On days 5 (D5), 7 (D7) and 10 (D10) after parasite inoculation, tail blood smears were Giemsa-stained and examined microscopically to estimate parasitaemia. Acute toxicity testing was carried out to determine adverse effects due to compounds (including weight loss, hair appearance, skin wounds and behavioural changes), and recorded daily.

Plasmodium berghei NK65 = assay: Peters' 4-day suppressive test in Swiss albino mice; type: in vivo; conditions: for in vivo outcome against P. berghei in words: followed to day 10; for inhibition in vivo at 50 mg/kg/day: Plasmodium berghei
Method: as §4

[7] = tested on: P. falciparum 3D7 (chloroquine and mefloquine sensitive); set-up: method as in Lobo et al, 2016; conditions: strain 3D7; ref Lobo et al, 2016; read-out: P. falciparum IC50 ± SD, 3D7; cited from earlier work
[8] = tested on: P. falciparum Dd2 (chloroquine-resistant, mefloquine-resistant); set-up: method as in Lobo et al, 2016; conditions: ref Lobo et al, 2016, cited from earlier work
[9] = tested on: P. falciparum 3D7 ring-stage parasites; assay: Ring-stage survival assay (RSA), 3D7; type: cell-based, Plasmodium falciparum; conditions: 6 h pulse, 10 x IC50 (DHA 700 nM), ART-S strain 3D7
Method: as §2

[10] = tested on: P. falciparum 3D7 (chloroquine and mefloquine sensitive); assay: SYBR Green I assay, IC50, strain 3D7; type: cell-based, Plasmodium falciparum; conditions: read-out: P. falciparum IC50 ± SD, 3D7
Method: as §1

[11] = mice, 50 mg/kg/day oral for 4 days, day 5
[12] = mice, 50 mg/kg/day oral for 4 days

C[C@H]1[C@@H](O)O[C@@H]2O[C@@]3(C)CC[C@H]4[C@H](C)CC[C@@H]1[C@@]24OO3 [DHA, dihydroartemisinin, reference compound]
IC50 [1]: 6.2 ± 1.6 nM
viability at 0.7 µM ([2]; Plasmodium falciparum, 6 h, read-out: Ring-stage survival rate (RSA), percentage of viable parasites, IPC5202): ≤ 25%
LD50 HepG2 [3]: 1.0 mM
LD50 V79 [4]: > 1 mM
viable mature-stage parasites allowed [5]: ~1%
IC50 [6]: 3.7 ± 2 nM

CC(C)(C)OC(=O)NCCCCNC(=O)C1CCC2(CC1)OOC1(O2)C2CC3CC(C2)CC1C3 (centres unmarked) [MIS13]
Resistance Index RIb = IC50 (IPC5202)/IC50 (3D7) [1]: 0.23
IC50 [1]: 1.7 ± 1.1 nM
Selectivity index LD50 (HepG2)/IC50 (3D7) [3]: 44594.6
Selectivity index LD50 (HepG2)/IC50 (Dd2) [3]: 97058.8
Selectivity index LD50 (HepG2)/IC50 (IPC4912) [3]: 1100000.0
Selectivity index LD50 (HepG2)/IC50 (IPC5202) [3]: 194117.6
LD50 HepG2 [3]: 0.3 mM
decrease in HepG2 survival ([3]; maximum dose of 1 mM): ~30%
LD50 V79 [4]: > 1 mM
Selectivity index LD50 (V79)/IC50 (3D7) [4]: 135135.1
Selectivity index LD50 (V79)/IC50 (Dd2) [4]: 294117.6
Selectivity index LD50 (V79)/IC50 (IPC4912) [4]: 3333333.3
Selectivity index LD50 (V79)/IC50 (IPC5202) [4]: 588235.2
Resistance Index RIc = IC50 (IPC4912)/IC50 (3D7) [6]: 0.04
IC50 [6]: 0.3 ± 0.3 nM
adverse effects in vivo (Swiss albino mice): no adverse effects were observed
in vivo outcome against P. berghei in words (Plasmodium berghei NK65; 50 mg/kg/day oral for 4 days): by day 10 the five mice were cured; also recorded: totally suppressed P. berghei parasitaemia
inhibition in vivo at 50 mg/kg/day (Plasmodium berghei NK65; po, 120 h, read-out: % inhibition of parasite growth, Day 5): 92.6%
inhibition in vivo at 50 mg/kg/day (Plasmodium berghei NK65; po, 168 h, read-out: % inhibition of parasite growth, Day 7): 98.6%
inhibition in vivo at 50 mg/kg/day (Plasmodium berghei NK65; po, 240 h, read-out: % inhibition of parasite growth, Day 10): 100%
mice presenting parasitaemia, day 5 (Plasmodium berghei NK65; groups of five mice, 50 mg/kg/day oral, day 5): 1/5
Mean parasitaemia ± SD, Day 5 (Plasmodium berghei NK65; [11]): 0.11 ± 0.19%
Mean parasitaemia ± SD, Day 7 (Plasmodium berghei NK65; [12]): 0.05 ± 0.10%
Mean parasitaemia ± SD, Day 10 (Plasmodium berghei NK65; [12]): 0%

O=C1CCC2(CC1)OOC1(O2)C2CC3CC(C2)CC1C3 (centres unmarked) [LC50]
IC50 [7]: 14 ± 6.7 nM
Selectivity index LD50 (HepG2)/IC50 (3D7) [3]: 71428.6
Selectivity index LD50 (HepG2)/IC50 (Dd2) [3]: 42372.8
Selectivity index LD50 (V79)/IC50 (3D7) [4]: 71428.6
Selectivity index LD50 (V79)/IC50 (Dd2) [4]: 42372.8
Resistance Index RIa = IC50 (Dd2)/IC50 (3D7) ([8]; Dd2 vs 3D7): 1.7
IC50 ([8]; strain Dd2, read-out: P. falciparum IC50 ± SD, Dd2): 23.6 ± 8.4 nM

C1C2CC3CC1CC(C2)C31OOC2(CCC(Nc3nnn[nH]3)CC2)OO1 (centres unmarked) [LC163]
Resistance Index RIb = IC50 (IPC5202)/IC50 (3D7) [1]: 1.13
IC50 [1]: 71.1 ± 1.1 nM
Ring-stage survival rate (RSA), percentage of viable parasites, IPC5202 ([2]; 6 h pulse, 10 x IC50 (DHA 700 nM), ART-R strain IPC5202): 2.0 ± 1.9% and > 1%
Selectivity index LD50 (HepG2)/IC50 (3D7) [3]: 15873.0
Selectivity index LD50 (HepG2)/IC50 (Dd2) [3]: 22988.5
Selectivity index LD50 (HepG2)/IC50 (IPC4912) [3]: 53763.4
Selectivity index LD50 (HepG2)/IC50 (IPC5202) [3]: 14064.7
LD50 HepG2 [3]: 1.0 mM
LD50 V79 [4]: > 1 mM
Selectivity index LD50 (V79)/IC50 (3D7) [4]: 15873.0
Selectivity index LD50 (V79)/IC50 (Dd2) [4]: 22988.5
Selectivity index LD50 (V79)/IC50 (IPC4912) [4]: 53763.4
Selectivity index LD50 (V79)/IC50 (IPC5202) [4]: 14064.7
Ring-stage survival rate (RSA), percentage of viable parasites, 3D7 [9]: 6.9 ± 1.6% and > 1%
Resistance Index RIc = IC50 (IPC4912)/IC50 (3D7) [6]: 0.30
IC50 [6]: 18.6 ± 16.9 nM
IC50 ([10]; Plasmodium falciparum, 3D7, strain 3D7): < 100 nM
IC50 ([10]; strain 3D7): 63 ± 0.7 nM
in vivo outcome against P. berghei in words (Plasmodium berghei NK65; 50 mg/kg/day oral for 4 days): recrudescence also occurred on day 10
inhibition in vivo at 50 mg/kg/day (Plasmodium berghei NK65; 120 h, mice, 50 mg/kg/day oral for 4 days, day 5, vs control group, read-out: % inhibition of parasite growth, Day 5 (converted)): 100%
inhibition in vivo at 50 mg/kg/day (Plasmodium berghei NK65; 168 h, mice, 50 mg/kg/day oral for 4 days, day 7, vs control group, read-out: % inhibition of parasite growth, Day 7 (converted)): 100%
inhibition in vivo at 50 mg/kg/day (Plasmodium berghei NK65; 240 h, mice, 50 mg/kg/day oral for 4 days, day 10, vs control group, read-out: % inhibition of parasite growth, Day 10 (converted)): 96.5%
Mean parasitaemia ± SD, Day 5 (Plasmodium berghei NK65; [11]): 0%
Mean parasitaemia ± SD, Day 7 (Plasmodium berghei NK65; [12]): 0%
Mean parasitaemia ± SD, Day 10 (Plasmodium berghei NK65; [12]): 0.2 ± 0.13%
